Assay results from patent US8580794B2 (AbbVie Inc., priority 2009, dated 2013).

Molecular target: GST-Bc1-2 (Homo sapiens, UniProt P10415)
Experiment: Time Resolved-Fluorescence Resonance Energy Transfer (TR-FRET) Bcl-2 binding assay with F-Bak peptide probe
Conditions: GST-Bcl-2 1 nM, F-Bak probe 100 nM, Tb-anti-GST 1 nM; '<' = below limit of detection; read-out: TR-FRET Bcl-2 Binding Ki

Chain of GST-Bc1-2 (P10415 whole entry): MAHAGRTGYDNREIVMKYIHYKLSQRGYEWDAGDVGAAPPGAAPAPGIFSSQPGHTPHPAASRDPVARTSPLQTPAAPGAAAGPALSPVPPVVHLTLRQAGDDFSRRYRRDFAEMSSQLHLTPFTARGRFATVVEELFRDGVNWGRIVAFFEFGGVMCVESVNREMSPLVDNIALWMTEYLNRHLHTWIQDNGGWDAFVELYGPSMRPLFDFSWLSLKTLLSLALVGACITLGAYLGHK

Structure (SMILES) | Ki [pM]
CC1(C)CCC(CN2CCN(c3ccc(C(=O)NS(=O)(=O)c4ccc(NCCC(F)(F)F)c([N+](=O)[O-])c4)c(Oc4cnc5[nH]ccc5c4)c3)CC2)=C(c2ccc(Cl)cc2)C1 [Example 27, 4-(4-{[2-(4-chlorophenyl)-4,4-dimethylcyclohex-1-en-1-yl]methyl}piperazin-1-yl)-N-({3-nitro-4-[(3,3,3-trifluoropropyl)amino]phenyl}sulfonyl)-2-(1H-pyrrolo[2,3-b]pyridin-5-yloxy)benzamide] | 134
CC1(C)CCC(CN2CCN(c3ccc(C(=O)NS(=O)(=O)c4cnc(OCC5CCOCC5)c(F)c4)c(Oc4cnc5[nH]ccc5c4)c3)CC2)=C(c2ccc(Cl)cc2)C1 [Example 293, 4-(4-{[2-(4-chlorophenyl)-4,4-dimethylcyclohex-1-en-1-yl]methyl}piperazin-1-yl)-N-{[5-fluoro-6-(tetrahydro-2H-pyran-4-ylmethoxy)pyridin-3-yl]sulfonyl}-2-(1H-pyrrolo[2,3-b]pyridin-5-yloxy)benzamide] | 93
CC1(C)CCC(CN2CCN(c3ccc(C(=O)NS(=O)(=O)c4ccc(N[C@H]5CC[C@H](N(C6CC6)C6CC6)CC5)c([N+](=O)[O-])c4)c(Oc4cnc5[nH]ccc5c4)c3)CC2)=C(c2ccc(Cl)cc2)C1 [Example 100, Trans-4-(4-{[2-(4-chlorophenyl)-4,4-dimethylcyclohex-1-en-1-yl]methyl}piperazin-1-yl)-N-[(4-{[4-(dicyclopropylamino)cyclohexyl]amino}-3-nitrophenyl)sulfonyl]-2-(1H-pyrrolo[2,3-b]pyridin-5-yloxy)benzamide] | < 10
CC1(C)CCC(CN2CCN(c3ccc(C(=O)NS(=O)(=O)c4ccc(OCc5ccoc5)c([N+](=O)[O-])c4)c(Oc4cnc5[nH]ccc5c4)c3)CC2)=C(c2ccc(Cl)cc2)C1 [Example 279, 4-(4-{[2-(4-chlorophenyl)-4,4-dimethylcyclohex-1-en-1-yl]methyl}piperazin-1-yl)-N-{[4-(3-furylmethoxy)-3-nitrophenyl]sulfonyl}-2-(1H-pyrrolo[2,3-b]pyridin-5-yloxy)benzamide] | 35
CC1(C)CCC(CN2CCN(c3ccc(C(=O)NS(=O)(=O)c4ccc(NC[C@@H]5CCCOC5)c([N+](=O)[O-])c4)c(Oc4cnc5[nH]ccc5c4)c3)CC2)=C(c2ccc(Cl)cc2)C1 [Example 11, 4-(4-{[2-(4-chlorophenyl)-4,4-dimethylcyclohex-1-en-1-yl]methyl}piperazin-1-yl)-N-[(3-nitro-4-{[(3S)-tetrahydro-2H-pyran-3-ylmethyl]amino}phenyl)sulfonyl]-2-(1H-pyrrolo[2,3-b]pyridin-5-yloxy)benzamide] | 16
O=C(NS(=O)(=O)c1ccc(NCC2CCOCC2)c([N+](=O)[O-])c1)c1ccc(N2CCC(F)(Cc3ccccc3-c3ccc(Cl)cc3)CC2)cc1Oc1cnc2[nH]ccc2c1 [Example 271, 4-{4-[(4′-chlorobiphenyl-2-yl)methyl]-4-fluoropiperidin-1-yl}-N-({3-nitro-4-[(tetrahydro-2H-pyran-4-ylmethyl)amino]phenyl}sulfonyl)-2-(1H-pyrrolo[2,3-b]pyridin-5-yloxy)benzamide] | 39
CC1(C)CCC(CN2CCN(c3ccc(C(=O)NS(=O)(=O)c4ccc(OCC5(F)CCOCC5)c(C(F)(F)F)c4)c(Oc4cnc5[nH]ccc5c4)c3)CC2)=C(c2ccc(Cl)cc2)C1 [Example 307, 4-(4-{[2-(4-chlorophenyl)-4,4-dimethylcyclohex-1-en-1-yl]methyl}piperazin-1-yl)-N-({4-[(4-fluorotetrahydro-2H-pyran-4-yl)methoxy]-3-(trifluoromethyl)phenyl}sulfonyl)-2-(1H-pyrrolo[2,3-b]pyridin-5-yloxy)benzamide] | 130
CC1(C)CCC(CN2CCN(c3ccc(C(=O)NS(=O)(=O)c4cnc(OCC5CCOCC5)c(S(C)(=O)=O)c4)c(Oc4cnc5[nH]ccc5c4)c3)CC2)=C(c2ccc(Cl)cc2)C1 [Example 219, 4-(4-{[2-(4-chlorophenyl)-4,4-dimethylcyclohex-1-en-1-yl]methyl}piperazin-1-yl)-N-{[5-(methylsulfonyl)-6-(tetrahydro-2H-pyran-4-ylmethoxy)pyridin-3-yl]sulfonyl}-2-(1H-pyrrolo[2,3-b]pyridin-5-yloxy)benzamide] | 1190
CC1(C)CCC(CN2CCN(c3ccc(C(=O)NS(=O)(=O)c4ccc(NCc5cccc(OC(F)(F)F)c5)c([N+](=O)[O-])c4)c(Oc4cnc5[nH]ccc5c4)c3)CC2)=C(c2ccc(Cl)cc2)C1 [Example 175, 4-(4-{[2-(4-chlorophenyl)-4,4-dimethylcyclohex-1-en-1-yl]methyl}piperazin-1-yl)-N-[(3-nitro-4-{[3-(trifluoromethoxy)benzyl]amino}phenyl)sulfonyl]-2-(1H-pyrrolo[2,3-b]pyridin-5-yloxy)benzamide] | 119
COCCOCCS(=O)(=O)c1ccc(S(=O)(=O)NC(=O)c2ccc(N3CCN(CC4=C(c5ccc(Cl)cc5)CC(C)(C)CC4)CC3)cc2Oc2cnc3[nH]ccc3c2)cc1Cl [Example 58, N-[(3-chloro-4-{[2-(2-methoxyethoxy)ethyl]sulfonyl}phenyl)sulfonyl]-4-(4-{[2-(4-chlorophenyl)-4,4-dimethylcyclohex-1-en-1-yl]methyl}piperazin-1-yl)-2-(1H-pyrrolo[2,3-b]pyridin-5-yloxy)benzamide] | < 10
CC1(C)CCC(CN2CCN(c3ccc(C(=O)NS(=O)(=O)c4ccc(N[C@@H]5CCN(C6CCOCC6)C5)c([N+](=O)[O-])c4)c(Oc4cnc5[nH]ccc5c4)c3)CC2)=C(c2ccc(Cl)cc2)C1 [Example 130, 4-(4-{[2-(4-chlorophenyl)-4,4-dimethylcyclohex-1-en-1-yl]methyl}piperazin-1-yl)-N-[(3-nitro-4-{[(3R)-1-tetrahydro-2H-pyran-4-ylpyrrolidin-3-yl]amino}phenyl)sulfonyl]-2-(1H-pyrrolo[2,3-b]pyridin-5-yloxy)benzamide] | < 10
COCC1(C)CCC(c2ccc(Cl)cc2)=C(CN2CCN(c3ccc(C(=O)NS(=O)(=O)c4ccc(NCC5CCOCC5)c([N+](=O)[O-])c4)c(Oc4cnc5[nH]ccc5c4)c3)CC2)C1 (centres unmarked) [Example 360, 4-(4-{[2-(4-chlorophenyl)-5-(methoxymethyl)-5-methylcyclohex-1-en-1-yl]methyl}piperazin-1-yl)-N-({3-nitro-4-[(tetrahydro-2H-pyran-4-ylmethyl)amino]phenyl}sulfonyl)-2-(1H-pyrrolo[2,3-b]pyridin-5-yloxy)benzamide] | < 10
O=C(NS(=O)(=O)c1ccc(N[C@H]2CC[C@H](N3CCOCC3)CC2)c([N+](=O)[O-])c1)c1ccc(N2CCN(CC3=C(c4ccc(Cl)cc4)CCC4(CCCC4)C3)CC2)cc1Oc1cnc2[nH]ccc2c1 [Example 71, Trans-4-(4-{[8-(4-chlorophenyl)spiro[4.5]dec-7-en-7-yl]methyl}piperazin-1-yl)-N-({4-[(4-morpholin-4-ylcyclohexyl)amino]-3-nitrophenyl}sulfonyl)-2-(1H-pyrrolo[2,3-b]pyridin-5-yloxy)benzamide] | 10
CC1(C)CCC(CN2CCN(c3ccc(C(=O)NS(=O)(=O)c4ccc(OC[C@H]5COCCO5)c([N+](=O)[O-])c4)c(Oc4cnc5[nH]ccc5c4)c3)CC2)=C(c2ccc(Cl)cc2)C1 [Example 30, 4-(4-{[2-(4-chlorophenyl)-4,4-dimethylcyclohex-1-en-1-yl]methyl}piperazin-1-yl)-N-({4-[(2R)-1,4-dioxan-2-ylmethoxy]-3-nitrophenyl}sulfonyl)-2-(1H-pyrrolo[2,3-b]pyridin-5-yloxy)benzamide] | < 10
CC1(C)CCC(CN2CCN(c3ccc(C(=O)NS(=O)(=O)c4ccc(O[C@H]5CC[C@H](N6CCOCC6)CC5)c([N+](=O)[O-])c4)c(Oc4cnc5[nH]ccc5c4)c3)CC2)=C(c2ccc(Cl)cc2)C1 [Example 60, Trans-4-(4-{[2-(4-chlorophenyl)-4,4-dimethylcyclohex-1-en-1-yl]methyl}piperazin-1-yl)-N-({4-[(4-morpholin-4-ylcyclohexyl)oxy]-3-nitrophenyl}sulfonyl)-2-(1H-pyrrolo[2,3-b]pyridin-5-yloxy)benzamide] | < 10
COCCOCCN1CC[C@@H](Nc2ccc(S(=O)(=O)NC(=O)c3ccc(N4CCN(CC5=C(c6ccc(Cl)cc6)CC(C)(C)CC5)CC4)cc3Oc3cnc4[nH]ccc4c3)cc2[N+](=O)[O-])C1 [Example 254, 4-(4-{[2-(4-chlorophenyl)-4,4-dimethylcyclohex-1-en-1-yl]methyl}piperazin-1-yl)-N-{[4-({(3R)-1-[2-(2-methoxyethoxy)ethyl]pyrrolidin-3-yl}amino)-3-nitrophenyl]sulfonyl}-2-(1H-pyrrolo[2,3-b]pyridin-5-yloxy)benzamide] | < 10
CC(=O)N1CCCC(CNc2ccc(S(=O)(=O)NC(=O)c3ccc(N4CCN(CC5=C(c6ccc(Cl)cc6)CC(C)(C)CC5)CC4)cc3Oc3cnc4[nH]ccc4c3)cc2[N+](=O)[O-])C1 (centres unmarked) [Example 148, N-[(4-{[(1-acetylpiperidin-3-yl)methyl]amino}-3-nitrophenyl)sulfonyl]-4-(4-{[2-(4-chlorophenyl)-4,4-dimethylcyclohex-1-en-1-yl]methyl}piperazin-1-yl)-2-(1H-pyrrolo[2,3-b]pyridin-5-yloxy)benzamide] | < 10
CC1(C)CC(c2ccc(Cl)cc2)=C(CN2CCN(c3ccc(C(=O)NS(=O)(=O)c4ccc(N[C@H]5CC[C@@H](N6CCOCC6)CC5)c([N+](=O)[O-])c4)c(Oc4cnc5[nH]ccc5c4)c3)CC2)CO1 [Example 63, Cis-4-(4-{[4-(4-chlorophenyl)-6,6-dimethyl-5,6-dihydro-2H-pyran-3-yl]methyl}piperazin-1-yl)-N-({4-[(4-morpholin-4-ylcyclohexyl)amino]-3-nitrophenyl}sulfonyl)-2-(1H-pyrrolo[2,3-b]pyridin-5-yloxy)benzamide] | < 10
CC1(C)CCC(CN2CCN(c3ccc(C(=O)NS(=O)(=O)c4ccc(OCC5C[C@H]6C=C[C@@H]5C6)c([N+](=O)[O-])c4)c(Oc4cnc5[nH]ccc5c4)c3)CC2)=C(c2ccc(Cl)cc2)C1 (stereo partly drawn) [Example 201, N-({4-[(1S,4S)-bicyclo[2.2.1]hept-5-en-2-ylmethoxy]-3-nitrophenyl}sulfonyl)-4-(4-{[2-(4-chlorophenyl)-4,4-dimethylcyclohex-1-en-1-yl]methyl}piperazin-1-yl)-2-(1H-pyrrolo[2,3-b]pyridin-5-yloxy)benzamide] | 14

Same assay, conditions: Table 5, direct comparison Z=N vs Z=C analogs; read-out: Bcl-2 FRET ki

Structure (SMILES) | Ki [pM]
CC1(C)CCC(CN2CCN(c3ccc(C(=O)NS(=O)(=O)c4ccc(NC[C@@H]5CCCOC5)c([N+](=O)[O-])c4)c(Oc4cnc5[nH]ccc5c4)c3)CC2)=C(c2ccc(Cl)cc2)C1 [Example 11, 4-(4-{[2-(4-chlorophenyl)-4,4-dimethylcyclohex-1-en-1-yl]methyl}piperazin-1-yl)-N-[(3-nitro-4-{[(3S)-tetrahydro-2H-pyran-3-ylmethyl]amino}phenyl)sulfonyl]-2-(1H-pyrrolo[2,3-b]pyridin-5-yloxy)benzamide] | 16
